Experimental data taken from patent publication US12649730B2 (MITOIMMUNE THERAPEUTICS INC., priority 2021, dated 2026).
“Also recorded” adds a separate entry of the source.

Legend:
Type in all cases: physicochemical
[1] = Stability testing of 5 crystalline forms over 8 weeks at harsh conditions (40° C., 75% relative humidity)
Procedure: Stability testing was carried out over 8 weeks at harsh conditions (40° C., 75%, relative humidity) on the 5 crystalline forms obtained in Example 3.

[2] = Water sorption and desorption study, DVS cycle; conditions: 25° C.
Procedure: Using SMS DVS Advantage 1, 10 mg sample was placed in a mesh stainless steel basket. The overall test cycle comprises scanning two times (sorption and desorption) at 10% RH intervals in a 40 to 90% range (60 to 360 minutes for each humidity level) at a constant temperature (25° C.). Using SMS DVS Advantage 1, 10 mg of Crystalline Form A was placed in a mesh stainless steel basket. The overall test cycle comprises scanning two times (sorption and desorption) at 10% RH intervals in a 40 to 90% range (60 to 360 minutes for each humidity level) at a constant temperature (25° C.). Approximately 0.7% weight increase and absorption and loss relative to sorption level indicates a non-hygroscopic sample. FIG. 38 is an isotherm curve for Crystalline Form A (weight change % v. RH %), and a kinetic curve of weight change % v. time and relative humidity %.

[3] = Grinding test for Crystalline Form A
Procedure: 30 mg Crystalline Form A was manually ground for 5 minutes in a mortar and pestle. […] 30 mg of Crystalline Form A and […] of EtOH were placed in a mortar and pestle, and manually ground for 5 minutes. […] 30 mg of Crystalline Form A and […] of H2O were placed in a mortar and pestle, and manually ground for 5 minutes.

[4] = Pressurization test for Crystalline Form A; conditions: 3 minutes each at 2, 3 and 4 MPa
Procedure: 100 mg of Crystalline Form A was placed in a die cavity, then made into tablets by pressing for 3 minutes each at pressures of 2, 3 and 4 MPa using an upper punch.

[5] = 40° C./75% RH, 1 week, listed as Crystalline Form XII
[6] = 40° C./75% RH, 2 weeks, listed as Crystalline Form XII
[7] = 40° C./75% RH, 8 weeks, listed as Crystalline Form XII
[8] = Initial, listed as Crystalline Form XII

| SMILES | Assay ([1]; Initial) | Assay ([1]; 40° C./75% RH, 1 week) | Purity ([1]; 40° C./75% RH, 1 week) | XRPD Patterns ([1]; 40° C./75% RH, 1 week) | Assay ([1]; 40° C./75% RH, 2 weeks) | Purity ([1]; 40° C./75% RH, 2 weeks) | XRPD Patterns ([1]; 40° C./75% RH, 2 weeks) | Assay ([1]; 40° C./75% RH, 4 weeks) | Purity ([1]; 40° C./75% RH, 4 weeks) | XRPD Patterns ([1]; 40° C./75% RH, 4 weeks) | Assay ([1]; 40° C./75% RH, 8 weeks) | Purity ([1]; 40° C./75% RH, 8 weeks) | XRPD Patterns ([1]; 40° C./75% RH, 8 weeks) | Purity ([1]; Initial) | XRPD Patterns ([1]; Initial) | further results |
| --- | --- | --- | --- | --- | --- | --- | --- | --- | --- | --- | --- | --- | --- | --- | --- | --- |
| O=S1(=O)CCN(Cc2cc(NC3CCOCC3)c3[nH]c(-c4ccccc4)cc3c2)CC1 [Crystalline Form A, 5-[(1,1-dioxido-4-thiomorpholinyl)methyl]-2-phenyl-N-(tetrahydro-2H-pyran-4-yl)-1H-indol-7-amine] | 100.00% | – | – | – | – | – | – | – | – | – | – | – | – | – | – | Stability judged among the 5 crystalline forms ([1]; 40° C., 75% relative humidity, 8 weeks): most stable crystalline form; Assay [1, 5]: 101.17%; Purity [1, 5]: 99.19%; XRPD Patterns [1, 5]: Pattern A; Assay [1, 6]: 102.12%; Purity [1, 6]: 98.69%; XRPD Patterns [1, 6]: Pattern A; Assay [1, 7]: 102.17%; Purity [1, 7]: 99.88%; XRPD Patterns [1, 7]: Pattern A; Purity [1, 8]: 98.85%; XRPD Patterns [1, 8]: Pattern A; Hygroscopicity ([2]; DVS, 40 to 90% RH): non-hygroscopic; Weight increase (water sorption) ([2]; DVS, 40 to 90% RH): Approximately 0.7%; XRPD analysis after DVS ([2]; after DVS cycle): no change in crystalline form; XRPD analysis after wet grinding in EtOH ([3]; manually ground 5 minutes in EtOH): no change; XRPD analysis after wet grinding in H2O ([3]; manually ground 5 minutes in H2O): no change; XRPD analysis after dry grinding ([3]; manually ground 5 minutes, mortar and pestle): no change; XRPD analysis after pressing into tablets and grinding [4]: no changes |
| O=S1(=O)CCN(Cc2cc(NC3CCOCC3)c3[nH]c(-c4ccccc4)cc3c2)CC1 [Crystalline Form IV, 5-[(1,1-dioxido-4-thiomorpholinyl)methyl]-2-phenyl-N-(tetrahydro-2H-pyran-4-yl)-1H-indol-7-amine] | 100.00% | 101.81% | 99.73% | Pattern A | 105.36% | 99.88% | Pattern A | 99.58% | 99.87% | Pattern A | 104.25% | 99.86% | converted into Crystalline Form XII; also recorded: Pattern A | 99.87% | Pattern IV | – |
| O=S1(=O)CCN(Cc2cc(NC3CCOCC3)c3[nH]c(-c4ccccc4)cc3c2)CC1 [Crystalline Form V, 5-[(1,1-dioxido-4-thiomorpholinyl)methyl]-2-phenyl-N-(tetrahydro-2H-pyran-4-yl)-1H-indol-7-amine] | 100.00% | 103.86% | 99.60% | Pattern A | 103.99% | 99.21% | Pattern A | 98.50% | 99.16% | Pattern A | 104.75% | 99.36% | converted into Crystalline Form XII; also recorded: Pattern A | 99.37% | Pattern V | – |
| O=S1(=O)CCN(Cc2cc(NC3CCOCC3)c3[nH]c(-c4ccccc4)cc3c2)CC1 [Crystalline Form VIII, 5-[(1,1-dioxido-4-thiomorpholinyl)methyl]-2-phenyl-N-(tetrahydro-2H-pyran-4-yl)-1H-indol-7-amine] | 100.00% | 106.67% | 99.95% | Pattern A | 102.74% | 99.91% | Pattern A | 105.56% | 99.83% | Pattern A | 107.08% | 100.00% | converted into Crystalline Form XII; also recorded: Pattern A | 99.94% | Pattern VIII | – |
| O=S1(=O)CCN(Cc2cc(NC3CCOCC3)c3[nH]c(-c4ccccc4)cc3c2)CC1 [Crystalline Form XI, 5-[(1,1-dioxido-4-thiomorpholinyl)methyl]-2-phenyl-N-(tetrahydro-2H-pyran-4-yl)-1H-indol-7-amine] | 100.00% | 95.79% | 99.70% | – | 105.59% | 99.36% | – | 103.58% | 99.56% | Pattern A | 104.04% | 99.58% | – | 99.55% | Pattern XI | – |
